Experimental data as given in publication PMC11672637, “7-O-Carboxylic Acid-Substituted 3-O-Alkyl Difluoroquercetin; An Aztreonam-Potentiating Agent Against Carbapenemase-Producing Pseudomonas aeruginosa Through Simultaneous Inhibition of Metallo-β-Lactamase and Efflux Pump” (Antibiotics, 2024).

Target: T1, NDM-1 (Klebsiella pneumoniae, UniProt C7C422)
T1 construct: purchased RayBiotech, Inc. 230-00554
Experiment: β-lactamase inhibition assay (imipenem)
Format: biochemical
Settings: imipenem substrate; read-out: BLi, IC50 NDM-1
Experimental: Recombinant AmpC, OXA-48 (residues 23–265) and VIM-2 (residues 27–266) were prepared from Escherichia coli based on previously established protocols. KPC-2 and NDM-1 are commercially available from LifeSpan Biosciences, Inc., Seattle, WA, USA (LS-G26598) and RayBiotech, Inc., Peachtree Corners, GA, USA (230-00554), respectively. For β-lactamase inhibition assay, in a 96-well plate, 70–0.1 μM (in PBS) of the synthesized compounds (1~14) (100 μL) were mixed with diluted β-lactamase stock (2% DMSO in 200 μL). In a separate 96-well plate, a substrate of AmpC, KPC-2, OXA-48, and VIM-2 (nitrocefin) and NDM-1 (imipenem) were added into each well (final concentrations of 70 μM for nitrocefin and 100 μM for imipenem). After incubation at 37 °C for 20 min, the mixture of the synthesized compounds (1~14) and β-lactamase in one plate was added to the substrate in the other plate. Enzymatic hydrolysis of the substrate was then monitored by a Cytation 5 imaging multimode reader (BioTek Instruments Inc., Winooski, VT, USA) at 486 nm and 300 nm for nitrocefin and imipenem, respectively, for 15 min. The rates of hydrolysis in the presence of the inhibitors were determined when the reaction rate plateaued. Comparison of the enzymatic hydrolysis rates in the presence and the absence of inhibitors (100%) provided the percentage of enzyme inhibition at each concentration of the synthesized compounds. The IC50 values were obtained after non-linear regression (sigmoidal dose-responses) by GraphPad Prism 5 (GraphPad Software, Boston, MA, USA).

T1 sequence (C7C422 29-270, looked up, species assumed): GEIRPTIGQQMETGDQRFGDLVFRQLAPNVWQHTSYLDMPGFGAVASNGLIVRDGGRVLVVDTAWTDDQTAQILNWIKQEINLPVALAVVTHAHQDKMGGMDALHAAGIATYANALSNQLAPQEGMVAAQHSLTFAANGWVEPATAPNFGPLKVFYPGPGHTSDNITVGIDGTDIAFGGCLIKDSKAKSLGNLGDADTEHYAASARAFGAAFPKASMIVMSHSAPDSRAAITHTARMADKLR

CC(C)(C)CCOc1c(-c2ccc(F)c(F)c2)oc2cc(OCC(=O)O)cc(O)c2c1=O [Compound 5, 2-((2-(3,4-Difluorophenyl)-3-(3,3-dimethylbutoxy)-5-hydroxy-4-oxo-4H-chromen-7-yl)oxy)acetic Acid]
IC50: 6.1 ± 0.4 µM
